# Activity calls are given as the source filed them. The rule behind the calls is not given here.
# Tests used:
# SH-SY5Y = assay: Increase in H2S level in human SH-SY5Y cells at 20 uM after 3 hrs by HSip-1 probe-based fluorescence assay; assay type: functional, cell-based
# [1] = target: Transient receptor potential cation channel subfamily A member 1 (Rattus norvegicus, UniProt Q6RI86); assay: Activation of TRPA1 in rat astrocytes assessed as induction of Ca2+ influx by calcium green-1/acetoxymethyl ester-based fluorescence assay; assay type: cell-based
# Transient receptor potential cation channel subfamily A member 1, sequence (Q6RI86 whole entry): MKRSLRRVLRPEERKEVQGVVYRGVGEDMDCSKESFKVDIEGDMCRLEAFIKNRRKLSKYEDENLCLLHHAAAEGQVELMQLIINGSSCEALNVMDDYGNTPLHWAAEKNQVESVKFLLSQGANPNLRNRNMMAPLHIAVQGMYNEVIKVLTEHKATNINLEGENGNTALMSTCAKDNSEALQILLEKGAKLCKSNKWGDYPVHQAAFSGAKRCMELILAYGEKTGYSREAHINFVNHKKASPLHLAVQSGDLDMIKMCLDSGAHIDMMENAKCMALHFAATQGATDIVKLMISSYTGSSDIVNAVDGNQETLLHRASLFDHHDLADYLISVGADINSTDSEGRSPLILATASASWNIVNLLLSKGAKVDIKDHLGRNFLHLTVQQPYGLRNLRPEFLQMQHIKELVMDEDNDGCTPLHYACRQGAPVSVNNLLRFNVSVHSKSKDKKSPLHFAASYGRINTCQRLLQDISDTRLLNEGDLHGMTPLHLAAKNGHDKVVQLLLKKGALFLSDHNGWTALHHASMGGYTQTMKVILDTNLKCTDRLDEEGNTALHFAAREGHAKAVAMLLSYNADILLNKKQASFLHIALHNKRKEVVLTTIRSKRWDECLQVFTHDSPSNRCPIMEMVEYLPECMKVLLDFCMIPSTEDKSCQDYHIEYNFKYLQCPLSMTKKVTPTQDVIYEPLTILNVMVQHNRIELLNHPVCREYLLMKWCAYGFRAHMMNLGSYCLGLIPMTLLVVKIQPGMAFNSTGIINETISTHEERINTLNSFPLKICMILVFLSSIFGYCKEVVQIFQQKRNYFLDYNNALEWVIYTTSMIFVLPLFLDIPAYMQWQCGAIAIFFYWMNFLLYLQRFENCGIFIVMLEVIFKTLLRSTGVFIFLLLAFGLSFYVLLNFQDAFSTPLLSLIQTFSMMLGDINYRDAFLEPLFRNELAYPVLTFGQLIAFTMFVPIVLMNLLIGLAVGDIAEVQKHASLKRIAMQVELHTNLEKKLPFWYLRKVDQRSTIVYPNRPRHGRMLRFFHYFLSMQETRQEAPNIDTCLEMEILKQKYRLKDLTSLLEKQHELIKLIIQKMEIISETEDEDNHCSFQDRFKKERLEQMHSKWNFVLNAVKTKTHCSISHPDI
Structure (SMILES),Activity (SH-SY5Y),EC50 [1] [µM]
O=C(NC12CC3CC(CC(C3)C1)C2)c1ccc(-c2cssc2=S)cc1,Active,
S1SSSSSSS1 [SULFUR],,116
CC12CC3CC(C)(C1)CC(NC(=O)c1ccc(-c4cssc4=S)cc1)(C3)C2,Active,
SSS,,0.091

# Reference: ChEMBL document CHEMBL3596183, “Cytoprotective effects of hydrogen sulfide-releasing N-methyl-D-aspartate receptor antagonists are mediated by intracellular sulfane sulfur” (Medchemcomm, 2014)
